Ends that are not written are not given here.
Experiments:
U937 cells = assay: Cellular apoptosis and necrosis (Annexin V binding and propidium iodide uptake, flow cytometry); type: cell-based
Experimental: (§1) The ability of N-TACE to inhibit TNFR2 shedding was tested in a cell-based system. U937 cells were obtained from ATCC (Manassas, Va.) and maintained in RPMI-1640 medium with 10% fetal bovine serum. For experiments, U937 cells were plated into 6 well plates at a density of 2×10^6 cells/ml. PMA was purchased from Sigma (St. Louis, Mo.). Release of TNFR2 into […] cell culture supernatants over a 24-hour period was assayed utilizing a sandwich ELISA with a sensitivity of 7.8 pg/ml (R & D Systems). Cellular apoptosis and necrosis were measured using the TACS Annexin V-FITC Apoptosis Detection Kit (R & D Systems, Minneapolis, Minn.) and a XL-MCL Flow Cytometer (Becman-Coulter, Miami, Fla.). Statistical analysis was performed by a paired Student's t test with a Bonferroni correction for multiple comparisons and by single factor ANOVA. Differences were considered significant at a P value <0.05.
(§2) The U937 monocytic cells were treated for 24 hours with either N-TACE(18-54) (0.04 to 40 μM), or a peptide corresponding to N-TACE amino acids 18-29 (40 μM). […] In contrast, N-TACE(18-29) had no effect on TNFR2 shedding as compared to cells treated with media alone (186.5±1.8 vs. 184.6±2.2, n=6, P=NS).

[1] = system: recombinant human TACE (rhTACE); assay: TACE-mediated cleavage of rhTNFR2:Fc model substrate (SDS-PAGE, silver staining, Western blot); type: biochemical; settings: for inhibition of TACE-mediated cleavage of TNFR2:Fc: 80 μM peptide, silver staining
Source text: A model assay system was developed to assess the ability of N-TACE to inhibit TACE enzymatic activity. Recombinant human TACE (rhTACE), as well as the recombinant human TNFR1:Fc (rhTNFR1:Fc) and TNFR2:Fc (rhTNFR2:Fc) fusion proteins were purchased from R & D Systems (Minneapolis, Minn.). Both TNFR1:Fc and TNFR2:Fc are recombinant human chimeric proteins that encode the extracellular receptor domains, fused to a carboxy-terminal 6X-histidine-tagged Fc region of human IgG1 via a linker peptide (IEGRMD)(SEQ ID NO:1). Recombinant human TACE corresponds to the mature form following removal of the prodomain and has an apparent molecular weight of 70 kDa. N-TACE(18-54), which lacked the signal peptide, was synthesized by Sigma-Genosys (The Woodlands, Tex.). N-TACE truncation mutants were also synthesized; an amino-terminal mutant N-TACE(18-29) corresponded to N-TACE amino acids 18-29, a mid-domain mutant N-TACE(30-42) corresponded to N-TACE amino acids 30-42, a carboxy-terminal mutant N-TACE(43-54) corresponded to amino acids 43-54, and an extended mid-domain mutant N-TACE(30-48) corresponded to amino acids 30 to 48.
Chou Fasman analysis was performed using MacVector (Accelrys, Burlington, Mass.). Assays (50 μl) were performed in 50 mM Tris, 25 mM NaCl, pH 8.0 at 30° C. for 30 min. Samples were analyzed by SDS-PAGE using 4%-12% Bis-Tris Nupage gels (Invitrogen, Carlsbad, Calif.) and visualized with the SilverQuest Silver Staining Kit (Invitrogen, Carlsbad, Calif.). For Western blot analysis, samples were separated via SDS-PAGE, electroblotted onto nitrocellulose membranes, and incubated overnight (4° C.) with 200 ng/ml of a murine IgG1 monoclonal antibody directed against the histidine tag (Tetra-His, Qiagen, Valenica, Calif.). The antibody detected the carboxy-terminus of the recombinant human TNFR2:Fc fusion protein. A rabbit polyclonal antibody was also generated against N-TACE(18-54) (Sigma-Genosys, The Woodlands, Tex.) and was utilized for Western blotting at a 1:1000 dilution. Detection was by chemiluminescence using horseradish peroxidase-conjugated secondary antibodies.

[2] = system: TNFR2 shedding from U937 cells; assay: TNFR2 shedding from U937 cells (sandwich ELISA of soluble TNFR2 in supernatants); type: cell-based; settings: 40 μM, 24 hours
Experimental: as §1, §2

[3] = 0.5 μM rhTACE, 0.95 μM TNFR2:Fc, 30 min

Compound | inhibition of TACE-mediated cleavage of TNFR2:Fc [1, 3] | other results
PRPPDDPGFGPHQRLEKLDSLLSDYDILSLSNIQQHS [N-TACE(18-54)] | – | apoptosis or necrosis as cause of decreased TNFR2 shedding (U937 cells): not a consequence of either apoptosis or necrosis
N-TACE(30-42): mid-domain truncation mutant corresponding to N-TACE amino acids 30-42 (QRLEKLDSLLSDY) | none of the N-TACE truncation mutants (80 μM) inhibited | –
N-TACE(30-48): extended mid-domain mutant, 19-amino acid leucine-rich peptide, amino acids 30 to 48; QRLEKLDSLLSDYDILSLS (listed as Homo sapiens) | inhibited | inhibition of TNFR2 shedding ([2]; compared to cells treated with media alone): about 16%
vasoactive intestinal peptide (HSDAVFTDNYTRLRKQMAVKKYLNSILN) [VIP, irrelevant peptide purchased from Bachem, specificity control, reference compound] | neither α-defensin or VIP inhibited | –
CC(C)C[C@H](CC(=O)NO)C(=O)N[C@H](C(=O)N[C@@H](C)C(=O)NCCN)C(C)(C)C [TAPI-2, reference compound] | – | inhibition of TACE-mediated TNFR2 cleavage ([1]; 25 μM, 0.5 μM rhTACE, 0.95 μM TNFR2:Fc, 30 min): completely inhibited
N-TACE(18-29): amino-terminal truncation mutant corresponding to N-TACE amino acids 18-29 (PRPPDDPGFGPH) | none of the N-TACE truncation mutants (80 μM) inhibited | effect on TNFR2 shedding ([2]; compared to media alone): no effect
N-TACE(43-54): carboxy-terminal truncation mutant corresponding to amino acids 43-54 (DILSLSNIQQHS) | none of the N-TACE truncation mutants (80 μM) inhibited | –
N-TACE: 54 amino acid protein: first 54 amino acids of TACE, signal peptide plus amino-terminus of prodomain, SEQ ID NO:3 (MRQSLLFLTSVVPFVLAPRPPDDPGFGPHQRLEKLDSLLSDYDILSLSNIQQHS; listed as Homo sapiens) | – | inhibition of TACE-mediated cleavage of TNFR2:Fc (summary statement) ([1]; concentration not given): shown to inhibit

Reference: patent publication US7655752B2, “TNF-α converting enzyme inhibitory agents and method of using same” (The United States of America as represented by the …, priority 2003, dated 2010)
